According to patent US7928113B2, “Integrin-binding small molecules” (University of Southern California, priority 2005, dated 2011):

Key:
Type in all cases: cell-based, human
[1] = system: HEY ovarian cancer cell line; assay: Cytotoxicity MTT assay, HEY; settings: Homo sapiens; 20 μM, HEY, 72 h MTT; read-out: % inhibition of cell growth at 20 μM, HEY
Text: (§1) Cell Culture. Human breast cancer cells (MCF-7, αvβ3—, overexpressed wild-type p53, ER+; MDA-MB 468, p53 mutant, ER+; and MDA-MB-435, αvβ3+, p53 mutant, ER−) and non-small cell lung cancer cells H1975 were obtained from the American Type Cell Culture (Rockville, Md. Q4). The HEY human ovarian carcinoma cell line naturally resistant to cisplatin (CDDP) was kindly provided by Dr. Dubeau (University of Southern California Norris Cancer Center). Cells were maintained as monolayer cultures in RPMI 1640 supplemented with 10% fetal bovine serum (Gemini-Bioproducts, Woodland, Calif.) and 2 mmol/L L-glutamine at 37° C. in a humidified atmosphere of 5% CO2. To remove the adherent cells from the flask for passaging and counting, cells were washed with PBS without calcium or magnesium, incubated with a small volume of 0.25% trypsin-EDTA solution (Sigma, St. Louis, Mo.) for 5 to 10 minutes, and washed with culture medium and centrifuged. All experiments were done using cells in exponential cell growth.
(§2) Cytotoxicity Assay. Cytotoxicity was assessed by 3-(4,5-dimethylthiazol-2-yl)-2,5-diphenyltetrazolium bromide (MTT) assay as previously described.^41, 54 Briefly, cells were seeded in 96-well microtiter plates and allowed to attach. Cells were subsequently treated with a continuous exposure to the corresponding drug for 72 hours. An MTT solution (at a final concentration of 0.5 mg/mL) was added to each well and cells were incubated for 4 hours at 37° C. After removal of the medium, DMSO was added and the absorbance was read at 570 nm. All assays were done in triplicate. The IC50 was then determined for each drug from a plot of log (drug concentration) versus percentage of cell kill.
(§3) Cytotoxicity of Selected Compounds in a Panel of Cancer Cell lines. Initially, we tested all compounds in two breast cancer cell lines MDA-MB-435 and MCF7 with high and low αvβ3 expression as well as in HEY ovarian cancer cell line naturally resistant to cisplatin. […] We observed a remarkable specificity for some of the compounds against these cells. […] Considering the fact that αvβ3 mediates migration, attachment and apoptosis of cancer cells, the combination of these novel high affinity antagonists with conventional cytotoxic drugs should show improved therapeutic benefits without additional toxicity.
(§4) NVX-188 was tested for cytotoxicity by MTT assays in two breast cancer cell lines, MDA-MB-435 with high αvβ3 integrin expression and MCF7 with low αvβ3 integrin expression, and an ovarian cancer cell line, HEY, which was used to test for cell growth inhibition evidence. NVX-188 was further evaluated in a lung cancer cell line, NCI-H1975, and a mouse fibroblast, NIH3T3. NVX-188 was not cytotoxic at the highest dose level tested (20 uM).

[2] = system: MCF7 breast cancer cell line; assay: Cytotoxicity MTT assay, MCF7; settings: Homo sapiens; 20 μM, MCF7, 72 h MTT; read-out: % inhibition of cell growth at 20 μM, MCF7
Text: as §1, §2, §3, §4

[3] = system: MDA-MB-435 breast cancer cell line; assay: Cytotoxicity MTT assay, MDA-MB-435; settings: Homo sapiens; 20 μM, MDA-MB-435, 72 h MTT; read-out: % inhibition of cell growth at 20 μM, 435
Text: as §1, §2, §3, §4

[4] = Cytotoxicity MTT assay, HEY; settings: human, HEY ovarian carcinoma cells; HEY, Table 5
Text: as §1, §2, §3, §4

[5] = Cytotoxicity MTT assay, MCF7; settings: human, MCF-7 breast cancer cells; MCF-7, Table 5
Text: as §1, §2, §3, §4

[6] = Cytotoxicity MTT assay, MDA-MB-435; settings: human, MDA-MB-435 breast cancer cells; MDA-MB-435, Table 5
Text: as §1, §2, §3, §4

SMILES | inhibition at 20 µM [1] | inhibition at 20 µM [2] | inhibition at 20 µM [3] | IC50 at 72 h [4] | IC50 at 72 h [5] | IC50 at 72 h [6]
COc1cc(/C=C2\S/C(=N/c3cccc(C(=O)O)c3)N(C)C2=O)cc(Cl)c1O [AV37] | 0% | 9% | 3% |  |  | 
O=C(CCCCn1cnc2c(S)ncnc21)Nc1ccc(C(=O)O)cc1 [AV1] | 14% | 0% | 0% |  |  | 
CC(=O)Nc1nc(O)c2nc(CCN(C)c3ccc(C(=O)O)cc3)cnc2n1 [AV5] | 0% | 0% | 49% |  |  | 
Nc1ccc(C(=O)Nc2nc3ccc(C(=O)O)cc3s2)cc1 [AV9] | 0% | 36% | 19% |  |  | 
Nc1nc(O)c2cc(COc3ccc(C(=O)NC(CCC(=O)O)C(=O)O)cc3)ccc2n1 (stereo not drawn) [AV8] | 6% | 24% | 12% |  |  | 
Cc1nnc(N/N=C/c2ccc(OCC(=O)O)cc2)nc1O [AV20] | 0% | 27% | 11% |  |  | 
CC1=C(C#N)c2nc(N)c(C#N)c(C)c2/C1=C/c1ccc(-c2ccc(Cl)c(C(=O)O)c2)o1 [AV15] | 14% | 14% | 33% |  |  | 
O=C(O)c1ccc(-c2ccc(/C=N/Nc3nc(Nc4ccccc4)nc(Nc4ccccc4)n3)o2)cc1 [AV10] | 73% | 62% | 93% | 21 ± 3 µM | > 20 µM | 18 ± 9 µM
COc1cc(/C=C2\NC(=O)N(CC(=O)Nc3ccc(C)cc3)C2=O)ccc1OCc1cccc(C(=O)O)c1 [AV21] | 0% | 43% | 26% |  |  | 
O=C(CSc1nnnn1-c1ccc(O)cc1)NCc1cccc(C(=O)O)c1 [AV23] | 0% | 34% | 9% |  |  | 
COc1cc(/C=N/Nc2nc(Nc3ccc(F)cc3)nc(N3CCCCC3)n2)ccc1OCC(=O)O [AV11] | 0% | 49% | 53% |  |  | 
Cc1ccnc(NS(=O)(=O)c2ccc(NC(=O)c3ccc(C(=O)O)cc3C(=O)O)cc2)n1 [AV18] | 0% | 11% | 18% |  |  | 
CN(C1=NC(=O)/C(=C\c2ccc(OCC(=O)O)cc2)S1)c1ccc(O)cc1 [AV24] | 19% | 21% | 9% |  |  | 
CCC(=O)Nc1nc(C)c(-c2csc(Nc3cccc(C(=O)O)c3)n2)s1 [AV31] | 62% | 44% | 21% |  |  | 
